US8623832B2, “Peptide compositions that bind TLR-4” (The Board of Regents of the University of Oklahoma, priority 2011, dated 2014)
Where no end group is shown, it is not given here.

Assays:
[1] = test system: dendritic (JAWS II) and intestinal epithelial cells (SW480); assay: Cell viability during the 5 hour TLR4 expression experiment; format: cell-based; settings: within the 5 hours of the experiment
Protocol: SPA4 peptide (SEQ ID NO:3) inhibits the LPS-induced TLR4 expression in dendritic cells and SW480 intestinal (colonic) epithelial cells. […] Both of these cells constitutively express the TLR4 gene; the protein expression is low in dendritic cells under basal conditions. […] First, it was determined if the SPA4 peptide inhibits LPS-induced expression of TLR4 in these cells. […] After a total of 5 hours, TLR4 expression was studied by confocal microscopy.

[2] = Binding to LPS by Limulus Amoebocyte Lysate (LAL) assay; set-up: species or system Escherichia coli; settings: 0-20 μM peptide; 0.01 ng/ml LPS; read at 6 and 12 minutes
Protocol: Binding of SPA4 peptide to LPS: The binding of SPA4 peptide to LPS was studied by LAL assay as per the method described by Giacometti et al. (2004). Briefly, 0-20 μM SPA4 peptide or polymyxin B (positive control) solutions were added to 0.01 ng/ml Escherichia coli O111:B4 LPS (supplied with the kit, Charles River Laboratories International, Inc., Wilmington, Mass.) in the wells of a 96 well plate and incubated at 37° C. for 40 minutes. Fifty μl of LAL substrate solution was then added to each well, and the plate was incubated for another 10 minutes. Finally, substrate-buffer solution was added, and optical density readings (OD) were obtained at 405 nm after 0, 6 and 12 minutes of addition of substrate. AOD values for SPA4 peptide or polymyxin B incubated with LPS (ΔODtreatment), LPS alone (ΔODLPS) and blank (ΔODBlank) were calculated by subtracting the OD values obtained at 6 or 12 minutes from those obtained at 0 minutes. Percent binding of SPA4 peptide and polymyxin B was calculated at 6 and 12 minutes of reaction using following formula: […]

TLR4 = TLR4 expression in SW480 cells by immunocytochemistry / confocal microscopy; format: cell-based, human; settings: LPS 4 hours then SPA4 1 hour, more pronounced with 100 μM
Protocol: Expression of TLR4: Next, the effect of SPA4 peptide on the expression of TLR4 in SW480 cells was investigated by immunocytochemistry and laser confocal microscopy. Briefly, about 2.5×10^4 cells were seeded in an 8-well chamber slide (Thermo Fisher Scientific, Rochester, N.Y.) in complete medium. The cells were treated with E. coli O111:B4-derived, highly-purified, low-protein LPS (100 ng/ml or 1.0 μg/ml; Calbiochem, CA) for 4 hours following 1 hour incubation with SPA4 peptide (1, 10 and 100 μM). The cells were fixed in 3.5% paraformaldehyde in Dulbecco's PBS (DPBS) and permeabilized with 0.05% saponin solution (Inaba et al. 1998). The wells were washed with DPBS supplemented with 1% FBS and 0.05% saponin, and stained with TLR4-specific antibody (1:50 dilution, Abcam, Mass.) and 10 μg/ml Alexa-fluor 488-labeled secondary anti-rabbit IgG antibody (Invitrogen-Molecular Probes, CA). After washing, the cells were stained with 100 nM rhodamin-phallodin (Cytoskeleton Inc, CO) and 1 μg/ml Hoechst 33342 dyes (Invitrogen-Molecular Probes, CA). Confocal microscopic images were acquired at the Imaging core facility of the Oklahoma Medical Research Foundation, Oklahoma City, using the Zeiss LSM-510 META laser scanning confocal microscope. Images were acquired with lens objective of 63× with the x/y stack sizes being 146.2 μm using band pass filter specifications at 435-485, 560-615 and 505-530.

recombinant MD2 protein = target: T1, recombinant MD2 protein (Homo sapiens, UniProt Q9Y6Y9); assay: Microwell-based binding to immobilized recombinant MD2 protein; settings: 0.25 μg MD2 per well
T1 construct: human MD-2 (mature region, Glu 17-Asn 160 amino acids); 10x histidine tag (C); signal peptide from human CD33 (N); purchased R&D Systems, MN; host or cells: mouse myeloma cell line NS0
T1 sequence (Q9Y6Y9 17-160): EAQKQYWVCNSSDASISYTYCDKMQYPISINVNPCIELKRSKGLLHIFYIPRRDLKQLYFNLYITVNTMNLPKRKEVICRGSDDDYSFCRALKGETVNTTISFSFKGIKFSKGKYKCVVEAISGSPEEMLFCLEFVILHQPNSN
Description: Interaction between purified baboon lung SP-A, SP-A-peptides and TLR4-MD2 proteins using a microwell-based method: The binding between the purified baboon lung SP-A, SP-A-peptides and recombinant TLR4-MD2 and MD2 proteins was studied in vitro using a microwell-based method (Awasthi et al., 2004). The soluble, recombinant TLR4-MD2 protein (R&D Systems, MN) consisted of a mixture of recombinant human-TLR4 and MD2 proteins. The recombinant extracellular domain of human TLR4 protein (Glu 24-Lys 631 amino acids), was joined with a DNA sequence encoding the signal peptide from human CD33 and a 10× histidine tag at the C-terminus (Accession # O00206). For MD2 protein, a DNA sequence encoding the signal peptide from human CD33 was joined with the mature region of human MD-2 (mature region, Glu 17-Asn 160 amino acids) and a 10× histidine tag at the C-terminus (Accession # Q9Y6Y9). […]
For the binding assay, microwell ultra-high-protein binding Immunolon 4HBX strips (Thermo Scientific, MA) were coated with soluble recombinant-TLR4-MD2 protein or MD2 protein (R&D Systems, 250 ng per well, diluted in 0.1 M NaHCO3, pH 9.6) overnight at room temperature. […] The immune-complex was detected using 3,3′,5,5′-tetramethylbenzidine (TMB) substrate system (Sigma-Aldrich, MO). The reaction was stopped with 2 N H2SO4 and read at 405 and/or 450 nm spectrophotometrically (Molecular Devices, CA).

[3] = Solubility of purified baboon lung SP-A; format: physicochemical

Row | Substance | viability of cells [1] | binding to LPS [2] | LPS-stimulated TLR4 expression (TLR4) | binding to surface-bound MD2 protein (recombinant MD2 protein) | solubility [3] [%]
1 | GDFRYSDGTPVNYTNWYRGE [SPA4, GDFRYSDGT PVNYTNWYRGE] | does not affect the viability of cells | does not bind to LPS | reduced the LPS-stimulated TLR4 expression to basal level | – | –
2 | SP-A: native surfactant protein-A purified from bronchioalveolar lavage fluid of a normal healthy adult baboon (MWLCPLALTLTLMAASGAACEVKDVCVGSPGIPGTPGSHGLPGRDGRDGVKGDPGPP; listed as Papio cynocephalus) | – | – | – | found to bind | 51
